From US11419868B2, “Low dose product and method for treating diarrhea” (MAREGADE RX, LLC, priority 2016, dated 2022)

Columns and labels:
rat colonic mucosa [1] = assay: PGE2-induced short-circuit current across rat colonic mucosa; type: cell-based; settings: 6 μM famotidine, 3 μM cetirizine, each alone; FIG. 3
Excerpt: (§1) Data are presented as mean±standard error of mean (SEM). […] 2014 December; 63(12):1873-82).
(§2) These secretogogues were selected because PGE2 mediates the occurrence of watery diarrhea in response to a low-grade inflammatory insult and forakolin because it selectively activates all forms of cAMP-mediated intestinal secretion.

[2] = system: stress-induced visceral hypersensitivity; assay: Chronic water avoidance stress (WAS) model, visceromotor response to colorectal distension; settings: oral twice daily 3.5 days
rat colonic mucosa [3] = assay: Electrical field stimulation-induced short-circuit current across rat colonic mucosa in Ussing chambers; type: cell-based; settings: individually or combined; for effect on EFS-induced ΔISC: famotidine 10 μM, cetirizine 5 μM, EFS 16 Hz, FIG. 1; for inhibition of EFS-induced ΔISC: famotidine 200 μM, cetirizine 100 μM, FIG. 2
Excerpt: as §1

colonic hypersensitivity = assay: Three rat models of colonic hypersensitivity, overall statement and conversion to human equivalent doses; settings: 0.25 mg/kg cetirizine, 0.6 mg/kg famotidine, two times per day p.o.
[4] = system: TNBS-induced, post-inflammatory colonic hypersensitivity; assay: TNBS-induced post-inflammatory colonic hypersensitivity model, VMR to CRD; settings: 0.25 mg/kg cetirizine, 0.6 mg/kg famotidine, each alone, oral twice daily 3.5 days; FIG. 8
rat colonic mucosa [5] = assay: Forskolin-induced short-circuit current across rat colonic mucosa; type: cell-based; settings: 6 μM famotidine, 3 μM cetirizine, each alone; FIG. 4
Excerpt: as §1, §2

[6] = system: acetic acid-induced colonic hypersensitivity; settings: famotidine 0.6 mg/kg, cetirizine 0.25 mg/kg, each alone, oral twice daily 3.5 days; FIG. 7
[7] = famotidine 0.6 mg/kg, cetirizine 0.25 mg/kg, each alone, FIG. 6
[8] = lowest doses: famotidine 0.3 mg/kg, cetirizine 0.15 mg/kg, alone or in combination, FIG. 5

Compound | effect on PGE2-induced changes in ISC (rat colonic mucosa [1]) | effect on colonic hypersensitivity [2, 7] | effect on colonic hypersensitivity [2, 8] | effect on EFS-induced ΔISC (rat colonic mucosa [3]) | inhibition of EFS-induced ΔISC (rat colonic mucosa [3]) | inhibitory effect on colonic hypersensitivity in all three rat models (colonic hypersensitivity) | effect on TNBS-induced colonic hypersensitivity [4] | effect on forskolin-induced changes in ISC (rat colonic mucosa [5]) | inhibition of acetic acid-induced colonic hypersensitivity [6]
O=C(O)COCCN1CCN(C(c2ccccc2)c2ccc(Cl)cc2)CC1 (centres unmarked) [cetirizine] | neither drug alone was effective | neither drug alone had an effect | had no effect on colonic hypersensitivity | had no effect | modest changes in ISC | did not result in sufficient inhibition | Neither cetirizine alone nor famotidine alone exhibited any effect | only minimally effective | 
NC(N)=Nc1nc(CSCCC(N)=NS(N)(=O)=O)cs1 [famotidine] | neither drug alone was effective | neither drug alone had an effect | had no effect on colonic hypersensitivity | had no effect | modest changes in ISC | did not result in sufficient inhibition | Neither cetirizine alone nor famotidine alone exhibited any effect | only minimally effective | not either drug alone, induced a significant inhibition
